{"source": "paper PMC4637315", "about": "“Hydroxycarboxylic acid receptors are essential for breast cancer cells to control their lipid/fatty acid metabolism” (Oncotarget, 2015)", "type_in_all_cases": "cell-based", "key": {"[1]": {"target": "T1, HCA3 (Homo sapiens, UniProt P49019)", "T1 construct": "gene HCAR3; endogenous receptor in BT-474 cells", "T1 sequence (P49019 whole entry)": "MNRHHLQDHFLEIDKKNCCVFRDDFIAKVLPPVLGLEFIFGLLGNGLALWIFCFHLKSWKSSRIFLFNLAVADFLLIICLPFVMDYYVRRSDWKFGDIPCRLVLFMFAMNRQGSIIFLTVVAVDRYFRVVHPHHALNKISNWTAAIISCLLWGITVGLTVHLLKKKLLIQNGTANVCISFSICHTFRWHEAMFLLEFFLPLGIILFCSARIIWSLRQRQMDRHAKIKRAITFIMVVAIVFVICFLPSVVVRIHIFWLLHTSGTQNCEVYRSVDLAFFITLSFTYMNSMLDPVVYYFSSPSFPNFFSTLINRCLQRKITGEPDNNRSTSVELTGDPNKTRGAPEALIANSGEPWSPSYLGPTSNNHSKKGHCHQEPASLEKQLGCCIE", "assay": "cAMP decrease in BT-474 cells, blocked by pertussis toxin"}, "[2]": {"target": "T2, HCA2 (Homo sapiens, UniProt Q8TDS4)", "T2 construct": "gene HCAR2; endogenous receptor in BT-474 cells", "T2 sequence (Q8TDS4 whole entry)": "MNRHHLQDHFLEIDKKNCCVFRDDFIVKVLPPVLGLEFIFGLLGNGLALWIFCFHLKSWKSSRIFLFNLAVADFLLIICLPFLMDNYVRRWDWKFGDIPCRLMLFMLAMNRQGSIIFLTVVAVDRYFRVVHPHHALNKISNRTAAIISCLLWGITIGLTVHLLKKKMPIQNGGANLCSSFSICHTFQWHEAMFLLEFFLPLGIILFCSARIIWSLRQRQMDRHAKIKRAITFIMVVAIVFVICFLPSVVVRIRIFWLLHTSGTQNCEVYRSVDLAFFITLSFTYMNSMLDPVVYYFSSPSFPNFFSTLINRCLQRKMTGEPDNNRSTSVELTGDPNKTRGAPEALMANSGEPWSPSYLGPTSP", "assay": "AlphaScreen cAMP assay, inhibition of forskolin-induced cAMP in BT-474 cells, pertussis toxin sensitive"}, "[3]": {"target": "T3, HCA1 (Homo sapiens, UniProt Q9BXC0)", "T3 construct": "gene HCAR1; endogenous receptor in BT-474 cells", "T3 sequence (Q9BXC0 whole entry)": "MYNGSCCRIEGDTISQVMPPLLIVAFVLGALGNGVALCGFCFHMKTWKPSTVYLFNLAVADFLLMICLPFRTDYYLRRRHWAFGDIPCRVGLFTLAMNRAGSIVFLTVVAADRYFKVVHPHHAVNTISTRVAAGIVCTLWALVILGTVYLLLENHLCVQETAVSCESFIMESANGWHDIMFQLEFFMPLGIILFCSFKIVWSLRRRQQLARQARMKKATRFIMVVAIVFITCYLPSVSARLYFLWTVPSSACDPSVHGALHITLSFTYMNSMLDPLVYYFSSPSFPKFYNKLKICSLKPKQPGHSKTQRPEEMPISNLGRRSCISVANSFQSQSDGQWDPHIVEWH", "assay": "AlphaScreen cAMP assay, inhibition of forskolin-induced cAMP in BT-474 cells, pertussis toxin sensitive"}, "[4]": {"target": "T3, HCA1", "assay": "cAMP decrease in BT-474 cells, blocked by pertussis toxin"}, "[5]": {"target": "T1, HCA3", "assay": "AlphaScreen cAMP assay, inhibition of forskolin-induced cAMP in BT-474 cells, pertussis toxin sensitive"}}, "data": [{"smiles": "CC(C)n1nnc2cc(C(=O)O)ccc21", "note": "[IPBT-5CA, 1-(1-methylethyl)-1H-benzotriazole-5-carboxylic acid]", "values": [{"measurement": "cAMP decrease in BT-474 cells, blocked by pertussis toxin", "setting": "[1]", "result": "synthetic HCA agonist-induced decrease in intracellular cAMP levels in BT-474 cells (Figure 3D-F)"}]}, {"smiles": "CC(O)CC(=O)O", "note": "(centres unmarked) [3HB, 3-hydroxybutyrate]", "values": [{"measurement": "EC50", "setting": "[2]", "result": 460, "unit": "µM"}]}, {"smiles": "C[C@H](O)C(=O)O", "note": "[lactate]", "values": [{"measurement": "EC50", "setting": "[3]", "result": 3400, "unit": "µM"}]}, {"smiles": "O=C(O)c1cc(O)cc(O)c1", "note": "[3,5 DHB, 3,5-dihydroxybenzoic acid]", "values": [{"measurement": "cAMP decrease in BT-474 cells, blocked by pertussis toxin", "setting": "[4]", "result": "synthetic HCA agonist-induced decrease in intracellular cAMP levels in BT-474 cells (Figure 3D-F)"}]}, {"smiles": "CCCCCC(O)CC(=O)O", "note": "(centres unmarked) [3HO, 3-hydroxyoctanoate]", "values": [{"measurement": "EC50", "setting": "[5]", "result": 9.5, "unit": "µM"}]}]}
